Consider 1 compound from patent US9708247B2, “Modulators of the eIF2alpha pathway” (The Regents of the University of California, priority 2013, dated 2017).

Common to all, as to assay type: cell-based, human
For assay [1], the system named is ATF4 luciferase reporter. The assay can be described thus: ATF4 luciferase reporter assay (Cell-luc) in HEK293T cells. Summed up:
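HEK293T cells stably carrying a human ATF4 5′-UTR (uORFs 1 and 2)–firefly luciferase reporter, treated with compound; luminescence measured at end point. Inhibition normalized to no-ER-stress DMSO control (100%).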

Assay [2] has as its system CHOP and GADD34 mRNA. Description: qRT-PCR of CHOP and GADD34 mRNA in U2OS cells. The note with it: 2 μg/ml tunicamycin, 200 nM ISRIB. The method, then:
FIGS. 4A-4B. ISRIB impairs induction of the transcriptional network controlled by ATF4; (FIG. 4A) ER-stress dependent induction of CHOP and GADD34 mRNA is impaired in cells treated with ISRIB; qPCR analysis of total RNA extracted from U2OS cells treated with 2 μg/ml of tunicamycin in the presence or absence of 200 nM ISRIB for the indicated times; mRNA levels for each sample were normalized to GAPDH (N=4); P values are derived from a one tail Student's t-test for unpaired samples; statistical significance: CHOP, P=0.0006 (*); GADD34, P=0.0008 (*); (FIG. 4B) ISRIB blocks CHOP production during ER stress; an immunofluorescence analysis of U2OS cells treated with 100 nM thapsigargin for 2 h in the presence or absence of 200 nM ISRIB is shown; a secondary Alexa Dye 488 anti-mouse antibody and rhodamine-phalloidin were used to visualize CHOP and actin, respectively.
U2OS cells were plated on 96 well plates and allowed to recover overnight. Cells were treated for the indicated times with the indicated compounds, lysed and cDNA was synthesized using the PowerSYBR Green Cells-to-CT kit (Ambion) following the manufacturer's recommendations. The reactions were ran in an Opticon 2 thermal cycler (BioRad) and analyzed with the Opticon Monitor v3 software (BioRad). […]

Assay [3] relates to RPMI8226 cells. Description: Polysome gradient analysis in RPMI8226 cells. The note with it: ER-stressed (5 μg/ml tunicamycin) and un-stressed cells, 1 μM ISRIB.

Like-named read-outs stand apart in the source and are kept apart here.

What is called IC50 is the concentration at which inhibition is half-maximal. On to `O=C(COc1ccc(Cl)cc1)NC1CCC(NC(=O)COc2ccc(Cl)cc2)CC1` (stereo not shown) [ISRIB], for which the IC50 in assay [1] (cultured HEK293T cells, 2 μg/ml tunicamycin, 7 h, synthesized isomers, read-out: IC50, inhibition of the ATF4-luciferase reporter) amounted to 5 nM; in assay [1] (screening library sample, likely a mixture of the two stereoisomers, read-out: IC50 of the library compound) it was 40 nM. Also, the “induction of GADD34 and CHOP mRNAs” value in assay [2] was “significantly reduced their induction”. Moreover, the “translation in multiple myeloma cells” value in assay [3] is “increased translation”.
